In the assay the target is hBPGM (Homo sapiens (Human), UniProt P07738). As to the kind of experiment: BPGM Synthase Assay. Particulars: Table 6 additional results; read-out: huBPGM: synthase Enzyme IC50. The format is biochemical. The protocol: Example B1. BPGM Synthase Assay
The following materials were used in this assay: deionized water; Bisphosphoglycerate mutase (BPGM; Standard Buffer: 50 mM Tris, 0.01% Tween 20, pH 7.4); BPGM Reaction Buffer (50 mM Tris, 0.01% Tween 20, 3.23 mM KH2PO4, pH 7.4); dithiothreitol (DTT; Stock solution: 100 mM in Standard Buffer); 384-Well Black Assay Plate (Corning, P/N 3575); DMSO; BPGM Stock Solution (500 nM in BPGM Standard Buffer); Glyceraldehyde 3-phosphate dehydrogenase (GAPDH; Stock Solution: 40 U/mL in 20 mM Tris-HCL Buffer with 20% Glycerol, 1 mM EDTA, 1 mM DTT); Glyceraldehyde 3-phosphate (GAP; Stock Solution: 20 mM in BPGM Standard Buffer); 3-PG Stock Solution (500 μM in BPGM Standard Buffer); Nicotinamide adenine dinucleotide (NAD; Stock Solution: 50 mM in BPGM Standard Buffer); Koningic Acid (1 mM Stock in DMSO); Resazurin Stock Solution (10 mM in DMSO); Diaphorase Stock Solution (40 U/mL in BPGM Standard Buffer); DTT Reaction Buffer (1 mM DTT in BPGM Reaction Buffer); Enzyme Solution (5 nM BPGM, 0.4 U/mL GAPDH in DTT Reaction Buffer); GAPDH Solution (0.4 U/mL GAPDH in DTT Reaction Buffer); Substrate Solution (2 mM NAD, 20 μM 3PG, 800 μM GAP in DTT Reaction Buffer); and Resazurin Solution (5 U/mL Diaphorase, 500 μM Resazurin in BPGM Standard Buffer).
To the assay plate was added Enzyme Solution (20 uL) to columns 2-22 and 24 of the assay plate. To columns 1 and 23 was added GAPDH Solution (20 uL). A separate compound plate was prepared at the desired concentrations and all wells were normalized with 5% DMSO. The compound plate was incubated for 30 minutes at RT. Next, the substrate solution (20 μL) was dispensed to all reaction wells and the plate was incubated for 60 minutes at RT. Koningic acid (1 μL) was added and the plate was incubated for 10 minutes at RT. During this time period, the NADH fluorescence was read at ex: 360/em: 460. Next, Resazurin Solution (10 μL) was added to all reaction wells and the plate was incubated for 30 minutes at RT. The resorufin fluorescence was then read at ex:544/em:590.

hBPGM, sequence (P07738 whole entry, looked up): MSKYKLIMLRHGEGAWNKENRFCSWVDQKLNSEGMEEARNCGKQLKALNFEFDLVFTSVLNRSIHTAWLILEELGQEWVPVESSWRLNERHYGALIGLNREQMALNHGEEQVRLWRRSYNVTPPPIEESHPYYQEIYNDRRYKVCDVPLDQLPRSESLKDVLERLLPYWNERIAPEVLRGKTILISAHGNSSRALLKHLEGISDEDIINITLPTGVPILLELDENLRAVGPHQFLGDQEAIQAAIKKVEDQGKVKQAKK

As for `Cc1nc(Cn2c(C)ccc(C#N)c2=O)sc1-c1cccc(-c2ccc(C(=O)O)c(O)c2)c1` [Example 295], the half-maximal inhibitory concentration (IC50) was found to be 0.6 µM. In the case of `Cc1nc(C)c(CCOc2ccc(C(=O)O)c(O)c2)s1` [Example 336], the half-inhibitory concentration (IC50) was greater than 25 µM. To `Cc1nc(C)c(-c2csc(-c3ccc(C(=O)O)c(O)c3)n2)s1` [Example 315] belongs 1.4 µM; to `CN(C)C(=O)OCC1CCN(c2cccc(-c3ccc(C(=O)O)cc3)n2)CC1` [Example 25], greater than 25 µM; to `Cc1nc(C)c(-c2cccc(-c3ccc(C(=O)O)c(O)c3)n2)s1` [Example 302], 1.2 µM. As to `Cc1nc(COc2ncccn2)sc1-c1ccnc(-c2ccc(C(=O)O)cc2)c1` [Example 23], the half-maximal inhibitory concentration (IC50) was determined as 17 µM. Next, `COC(=O)NCc1cc(C)c(-c2csc(-c3cc(O)c(C(=O)O)cc3F)n2)s1` [Example 179]: 0.6 µM. As to `Cc1nc(C)c(-c2csc(-c3ccc(O)c(C(=O)O)c3)n2)s1` [Example 321], the IC50 was found to be 7.3 µM.

With `Cc1nc(C)c(-c2cccc(-c3ccc(O)c(C(=O)O)c3)c2)s1` [Example 318], the concentration for half-maximal inhibition (IC50) was 4.8 µM. Regarding `Cc1nc(COc2cnn(C(C)(C)C)c2)sc1-c1cccc(-c2ccc(C(=O)O)cc2)n1` [Example 59], the IC50 was determined as 0.97 µM. Take `Cc1nc(C)c(-c2cccc(-c3ccc(C(=O)O)cc3)c2F)s1` [Example 297]: the IC50 was determined as 28 µM. Next, `Cc1nc(COc2ccc(F)cn2)sc1-c1cccc(-c2ccc(C(=O)O)c(C(F)F)c2)c1` [Example 29]: 1.8 µM; `Cc1nc(C)c(-c2coc(-c3ccc(C(=O)O)c(O)c3)n2)s1` [Example 271]: 8 µM. Next, `Cc1ccc(C#N)c(OCC(=O)N2CCC(c3cccc(-c4ccc(C(=O)O)c(O)c4)c3)C2)n1` (stereo not shown) [Example 328]: 45 µM. Regarding `Cc1ccc(C#N)c(OCCn2cc(-c3cccc(-c4ccc(C(=O)O)c(O)c4)c3)c(C)n2)n1` [Example 112], the 50% inhibitory concentration (IC50) came to 35 µM. As to `Cc1nc(C)c(-c2ccn(-c3ccc(C(=O)O)c(O)c3)n2)s1` [Example 288], the IC50 was 3.8 µM. Consider `Cc1nc(COc2ncccn2)sc1-c1nc(-c2ccc(C(=O)O)cc2)cs1` [Example 34], for which the IC50 was 0.34 µM.

For `Cc1nc(COc2ccc(F)cn2)sc1-c1ccn(-c2ccc(C(=O)O)c(C(F)F)c2)n1` [Example 17], the IC50 was found to be 0.89 µM.

Consider `Cc1nc(CN2CCOCC2)sc1-c1cccc(-c2ccc(C(=O)O)c(O)c2)c1` [Example 296], for which the IC50 came to 3.7 µM.

Regarding `Cc1nc(COc2ncccn2)sc1-c1cccc(-c2cc(C(=O)O)nn2C)n1` [Example 27], the IC50 came to 7.4 µM. Regarding `Cc1nc(CNC(=O)C(C)(C)C)sc1-c1cccc(-c2ccc(C(=O)O)cc2)n1` [Example 62], the IC50 is 1.8 µM. In the case of `Cc1nc(COc2ccc(F)cn2)sc1-c1ccc(-c2ccc(C(=O)O)c(O)c2)s1` [Example 341], the half-maximal inhibitory concentration (IC50) came out at 4.1 µM.

As to `Cc1nc(COc2ccc(F)cn2)sc1-c1ccn(-c2ccc(C(=O)O)c(O)c2)n1` [Example 21], the IC50 stood at 0.29 µM. For `Cc1nc(C(=O)O)sc1-c1cccc(-c2cc(F)c3[nH]nnc3c2F)n1` [Example 342], the IC50 was determined as 1.9 µM. Next, `Cc1nc(Cc2ccccc2F)sc1-c1cccc(-c2ccc(C(=O)O)c(O)c2)c1` [Example 104]: 1.5 µM; `Cc1nc(Cc2ccccc2C(F)(F)F)sc1-c1cccc(-c2ccc(C(=O)O)c(O)c2)c1` [Example 320]: 7 µM.

With `Cc1ccc(C#N)c(OCCn2cc(-c3cccc(-c4ccc(C(=O)O)c(O)c4)c3)cn2)n1` [Example 110], the IC50 stood at 8.8 µM. Regarding `Cc1nc(CNC(C)C)sc1-c1csc(-c2cc(O)c(C(=O)O)cc2F)n1` [Example 176], the IC50 came to 0.89 µM. Next, `Cc1nc(COc2ccc(F)cn2)sc1-c1cccc(-c2ccc(C(=O)O)c(C(F)F)c2)n1` [Example 22]: 0.29 µM. Next, `Cc1nc(CC2CCCCC2)sc1-c1cccc(-c2ccc(C(=O)O)c(O)c2)c1` [Example 313]: 9.1 µM; `Cc1nc(COc2ccc(F)cn2)sc1-c1cnn(-c2ccc(C(=O)O)cc2)n1` [Example 19]: 0.85 µM; `Cc1nc(C)c(-c2ccc(=O)n(-c3ccc(C(=O)O)c(O)c3)c2)s1` [Example 319]: greater than 250 µM. Consider `Cc1nc(C)c(-c2cc(-c3ccc(C(=O)O)c(O)c3)ccn2)s1` [Example 293], for which the 50% inhibitory concentration (IC50) was 9.3 µM. For the compound `Cc1nc(C)c(-c2cc(-c3ccc(C(=O)O)cc3)ccc2O)s1` [Example 301], the half-maximal inhibitory concentration (IC50) was greater than 250 µM. Turning to `Cc1nc(C)c(C2CCCN(c3ccc(C(=O)O)c(O)c3)C2)s1` (stereo not shown) [Example 122], the IC50 is greater than 250 µM. In the case of `Cc1ccc(C#N)c(OCCn2cc(-c3cccc(-c4ccc(C(=O)O)c(O)c4)c3)cn2)n1` [Example 111], the half-maximal inhibitory concentration (IC50) was determined as 15 µM.

In the case of `Cc1nc(Cn2cc(C(F)(F)F)cn2)sc1-c1cccc(-c2ccc(C(=O)O)cc2)n1` [Example 60], the IC50 worked out at 0.76 µM.

Turning to `Cc1nc(COc2ccc(F)cn2)sc1-c1cnn(-c2ccc(C(=O)O)c(O)c2)c1` [Example 20], the IC50 stood at 2.1 µM. Next, `Cc1nc(C)c(-c2ccc(C)c(-c3ccc(C(=O)O)cc3)c2)s1` [Example 305]: 82 µM; `Cc1nc(COc2ncc(C(F)(F)F)cn2)sc1-c1cccc(-c2ccc(C(=O)O)cc2)n1` [Example 43]: 23 µM. For `Cc1nc(C)c(-c2nc(-c3cc(O)c(C(=O)O)cc3F)sc2C)s1` [Example 241], the half-maximal inhibitory concentration (IC50) is 21 µM. On to `COC(=O)NCc1nc(C)c(-c2csc(-c3cc(NC(=O)OC)c(C(=O)O)cc3F)n2)s1` [Example 196], for which the IC50 amounted to 5.6 µM. Take `Cc1nc(COc2ccccn2)sc1-c1cccc(-c2ccc(C(=O)O)cc2)n1` [Example 57]: the IC50 is greater than 25 µM. As to `COC(=O)NCc1ccc(-c2csc(-c3cc(O)c(C(=O)O)cc3F)n2)c(C)n1` [Example 206], the 50% inhibitory concentration (IC50) came out at 2 µM. For the compound `Cc1nc(C)c(-c2csc(-c3ccc(C(=O)O)cc3)n2)s1` [Example 291], the IC50 turned out to be 3.3 µM. With `Cc1nc(COCC(C)(C)O)sc1-c1cccc(-c2ccc(C(=O)O)c(O)c2)c1` [Example 335], the IC50 came out at 0.31 µM. As to `Cc1nc(CO)sc1-c1cccc(-c2ccc(C(=O)NCC(=O)N3CCC(C(=O)O)CC3)cc2)n1` [Example 89], the IC50 was greater than 25 µM. For the compound `CCc1nc(C)c(-c2cccc(-c3ccc(C(=O)O)c(O)c3)c2)s1` [Example 323], the IC50 amounted to 1.6 µM.

Turning to `Cc1nc(OCC2CCCCO2)sc1-c1cccc(-c2ccc(C(=O)O)cc2)n1` (stereo not shown) [Example 41], the 50% inhibitory concentration (IC50) worked out at 19 µM. As to `Cc1nc(Cc2cccc(C#N)c2)sc1-c1cccc(-c2ccc(C(=O)O)c(O)c2)c1` [Example 308], the IC50 was found to be 1 µM. With `Cc1cc(-c2ccc(C(=O)O)cc2)cc(-c2sc(C)nc2C)c1` [Example 300], the half-inhibitory concentration (IC50) was determined as 160 µM. Consider `Cc1nc(CC(F)(F)F)sc1-c1cccc(-c2ccc(C(=O)O)c(O)c2)c1` [Example 292], for which the half-maximal inhibitory concentration (IC50) was found to be 5.8 µM.

With `Cc1nc(C)c(-c2nsc(-c3cc(O)c(C(=O)O)cc3F)n2)s1` [Example 205], the IC50 was found to be 1.1 µM. As for `Cc1nc(C(C)C)sc1-c1cccc(-c2ccc(C(=O)O)c(O)c2)c1` [Example 324], the concentration for half-maximal inhibition (IC50) turned out to be 2.3 µM. On to `COC(=O)NCc1ccc(-c2csc(-c3cc(O)c(C(=O)O)cc3F)n2)cn1` [Example 187], for which the concentration for half-maximal inhibition (IC50) came out at 1.7 µM. For the compound `O=C(O)c1ccc(-c2nc(-c3ccnc(CO)c3)cs2)cc1` [Example 38], the concentration for half-maximal inhibition (IC50) was greater than 25 µM. `Cc1nc(CNC(C)c2cccnc2)sc1-c1csc(-c2cc(O)c(C(=O)O)cc2F)n1` (stereo not shown) [Example 170]: the IC50 was determined as 1.2 µM. For the compound `Cc1ccc(C#N)c(OCCc2cnn(-c3cccc(-c4ccc(C(=O)O)c(O)c4)c3)c2)n1` [Example 303], the half-inhibitory concentration (IC50) was determined as 17 µM. On to `Cc1nc(Cn2ccccc2=O)sc1-c1cccc(-c2ccc(C(=O)O)c(O)c2)c1` [Example 290], for which the IC50 came to 2.2 µM. Consider `Cc1nc(CO[C@@H]2CCCOC2)sc1-c1cccc(-c2ccc(C(=O)O)cc2)c1` [Example 47], for which the IC50 came out at 0.98 µM.

Consider `Cc1ncc(-c2cccc(-c3ccc(C(=O)O)c(O)c3)c2)s1` [Example 325], for which the half-inhibitory concentration (IC50) turned out to be 3.5 µM. On to `Cc1nc(C)c(-c2ccc(C#N)c(-c3ccc(C(=O)O)c(O)c3)c2)s1` [Example 294], for which the IC50 turned out to be 44 µM. In the case of `Cc1nc(COc2ncccn2)sc1-c1cccc(-c2ccc(C(=O)O)c(C(=O)O)c2)n1` [Example 70], the IC50 came to 11 µM. Take `Cc1ccc(C#N)c(OCCn2cc(-c3cccc(-c4ccc(C(=O)O)c(O)c4)c3)c(C)n2)n1` [Example 330]: the IC50 stood at 6.6 µM.

Broadly, the IC50 is the midpoint of a concentration-inhibition curve.

These data come from patent US20230348450A1, “CARBOXYLIC ACID-CONTAINING COMPOUNDS AS MODULATORS OF BIS-PHOSPHOGLYCERATE MUTASE FOR THE TREATMENT OF SICKLE CELL DISEASE” (Genzyme Corporation, priority 2020, published 2023).
